From ChEMBL document CHEMBL1255438, “Comparative activities of TR-700 (torezolid) against staphylococcal blood isolates collected in Spain” (2010)
In brackets after ≈: the same amount, converted by molar mass.

Tests used:
Format in all cases: functional
[1] = test system: Staphylococcus aureus; experiment: Antimicrobial activity against linezolid-susceptible Staphylococcus aureus by CLSI method
[2] = test system: Staphylococcus aureus; experiment: Antimicrobial activity against linezolid-susceptible Staphylococcus aureus assessed as percent susceptible strain by CLSI method
[3] = test system: Staphylococcus aureus; experiment: Antimicrobial activity against oxacillin-susceptible Staphylococcus aureus by CLSI method
[4] = test system: Staphylococcus aureus; experiment: Antimicrobial activity against oxacillin-susceptible Staphylococcus aureus assessed as percent susceptible strain by CLSI method
[5] = test system: Staphylococcus aureus; experiment: Antimicrobial activity against oxacillin-resistant Staphylococcus aureus by CLSI method
[6] = test system: Staphylococcus aureus; experiment: Antimicrobial activity against linezolid-resistant Staphylococcus aureus by CLSI method
[7] = test system: Staphylococcus aureus; experiment: Antimicrobial activity against linezolid-resistant Staphylococcus aureus assessed as percent susceptible strain by CLSI method
[8] = test system: Staphylococcus; experiment: Antimicrobial activity against linezolid-susceptible coagulase-negative Staphylococcus by CLSI method
[9] = test system: Staphylococcus; experiment: Antimicrobial activity against linezolid-susceptible coagulase-negative Staphylococcus assessed as percent susceptible strain by CLSI method
[10] = test system: Staphylococcus aureus; experiment: Antimicrobial activity against linezolid-resistant Staphylococcus aureus assessed as inhibition of microbial growth at 16 ug/ml by CLSI method
[11] = test system: Staphylococcus aureus; experiment: Antimicrobial activity against oxacillin-resistant Staphylococcus aureus assessed as inhibition of microbial growth at 4 ug/ml by CLSI method
[12] = test system: Staphylococcus aureus; experiment: Antimicrobial activity against oxacillin-resistant Staphylococcus aureus assessed as inhibition of microbial growth at 2 ug/ml by CLSI method
[13] = test system: Staphylococcus aureus; experiment: Antimicrobial activity against oxacillin-resistant Staphylococcus aureus assessed as inhibition of microbial growth at =< 0.25 ug/ml by CLSI method
[14] = test system: Staphylococcus aureus; experiment: Antimicrobial activity against oxacillin-resistant Staphylococcus aureus assessed as inhibition of microbial growth at 1 ug/ml by CLSI method
[15] = test system: Staphylococcus aureus; experiment: Antimicrobial activity against oxacillin-resistant Staphylococcus aureus assessed as inhibition of microbial growth at 0.5 ug/ml by CLSI method
[16] = test system: Staphylococcus; experiment: Antimicrobial activity against oxacillin-susceptible coagulase-negative Staphylococcus aureus by CLSI method
[17] = Antimicrobial activity against oxacillin-susceptible coagulase-negative Staphylococcus aureus assessed as percent susceptible strain by CLSI method
[18] = test system: Staphylococcus; experiment: Antimicrobial activity against oxacillin-resistant coagulase-negative Staphylococcus aureus by CLSI method
[19] = test system: Staphylococcus; experiment: Antimicrobial activity against linezolid-resistant coagulase-negative Staphylococcus by CLSI method
[20] = test system: Staphylococcus; experiment: Antimicrobial activity against linezolid-resistant coagulase-negative Staphylococcus assessed as percent susceptible strain by CLSI method
[21] = test system: Staphylococcus aureus; experiment: Antimicrobial activity against linezolid-susceptible Staphylococcus aureus assessed as inhibition of microbial growth at =< 0.25 ug/ml by CLSI method
[22] = test system: Staphylococcus aureus; experiment: Antimicrobial activity against linezolid-susceptible Staphylococcus aureus assessed as inhibition of microbial growth at 0.5 ug/ml by CLSI method
[23] = test system: Staphylococcus aureus; experiment: Antimicrobial activity against linezolid-susceptible Staphylococcus aureus assessed as inhibition of microbial growth at 1 ug/ml by CLSI method
[24] = test system: Staphylococcus aureus; experiment: Antimicrobial activity against linezolid-susceptible Staphylococcus aureus assessed as inhibition of microbial growth at 2 ug/ml by CLSI method
[25] = test system: Staphylococcus aureus; experiment: Antimicrobial activity against linezolid-susceptible Staphylococcus aureus assessed as inhibition of microbial growth at 4 ug/ml by CLSI method
[26] = test system: Staphylococcus aureus; experiment: Antimicrobial activity against oxacillin-susceptible Staphylococcus aureus assessed as inhibition of microbial growth at =< 0.25 ug/ml by CLSI method
[27] = test system: Staphylococcus aureus; experiment: Antimicrobial activity against oxacillin-susceptible Staphylococcus aureus assessed as inhibition of microbial growth at 0.5 ug/ml by CLSI method
[28] = test system: Staphylococcus aureus; experiment: Antimicrobial activity against oxacillin-susceptible Staphylococcus aureus assessed as inhibition of microbial growth at 1 ug/ml by CLSI method
[29] = test system: Staphylococcus aureus; experiment: Antimicrobial activity against oxacillin-susceptible Staphylococcus aureus assessed as inhibition of microbial growth at 2 ug/ml by CLSI method
[30] = test system: Staphylococcus aureus; experiment: Antimicrobial activity against oxacillin-susceptible Staphylococcus aureus assessed as inhibition of microbial growth at 4 ug/ml by CLSI method
[31] = test system: Staphylococcus; experiment: Antimicrobial activity against linezolid-susceptible coagulase-negative Staphylococcus assessed as inhibition of microbial growth at =< 0.25 ug/ml by CLSI method
[32] = test system: Staphylococcus; experiment: Antimicrobial activity against linezolid-susceptible coagulase-negative Staphylococcus assessed as inhibition of microbial growth at 0.5 ug/ml by CLSI method
[33] = test system: Staphylococcus; experiment: Antimicrobial activity against linezolid-susceptible coagulase-negative Staphylococcus assessed as inhibition of microbial growth at 1 ug/ml by CLSI method
[34] = test system: Staphylococcus; experiment: Antimicrobial activity against linezolid-susceptible coagulase-negative Staphylococcus assessed as inhibition of microbial growth at 2 ug/ml by CLSI method
[35] = test system: Staphylococcus; experiment: Antimicrobial activity against linezolid-susceptible coagulase-negative Staphylococcus assessed as inhibition of microbial growth at 4 ug/ml by CLSI method
[36] = test system: Staphylococcus aureus; experiment: Antimicrobial activity against oxacillin-susceptible coagulase-negative Staphylococcus aureus assessed as inhibition of microbial growth at =< 0.25 ug/ml by CLSI method
[37] = test system: Staphylococcus aureus; experiment: Antimicrobial activity against oxacillin-susceptible coagulase-negative Staphylococcus aureus assessed as inhibition of microbial growth at 0.5 ug/ml by CLSI method
[38] = test system: Staphylococcus aureus; experiment: Antimicrobial activity against oxacillin-susceptible coagulase-negative Staphylococcus aureus assessed as inhibition of microbial growth at 1 ug/ml by CLSI method
[39] = test system: Staphylococcus aureus; experiment: Antimicrobial activity against oxacillin-susceptible coagulase-negative Staphylococcus aureus assessed as inhibition of microbial growth at 2 ug/ml by CLSI method
[40] = test system: Staphylococcus aureus; experiment: Antimicrobial activity against oxacillin-resistant coagulase-negative Staphylococcus aureus assessed as inhibition of microbial growth at 1 ug/ml by CLSI method
[41] = test system: Staphylococcus aureus; experiment: Antimicrobial activity against oxacillin-resistant coagulase-negative Staphylococcus aureus assessed as inhibition of microbial growth at 2 ug/ml by CLSI method
[42] = test system: Staphylococcus aureus; experiment: Antimicrobial activity against oxacillin-resistant coagulase-negative Staphylococcus aureus assessed as inhibition of microbial growth at 4 ug/ml by CLSI method
[43] = test system: Staphylococcus; experiment: Antimicrobial activity against linezolid-resistant coagulase-negative Staphylococcus assessed as inhibition of microbial growth at 16 ug/ml by CLSI method
[44] = test system: Staphylococcus; experiment: Antimicrobial activity against linezolid-resistant coagulase-negative Staphylococcus assessed as inhibition of microbial growth at 32 ug/ml by CLSI method
[45] = test system: Staphylococcus; experiment: Antimicrobial activity against linezolid-resistant coagulase-negative Staphylococcus assessed as inhibition of microbial growth at 64 ug/ml by CLSI method
[46] = test system: Staphylococcus; experiment: Antimicrobial activity against linezolid-resistant coagulase-negative Staphylococcus assessed as inhibition of microbial growth at 128 ug/ml by CLSI method
[47] = test system: Staphylococcus; experiment: Antimicrobial activity against linezolid-resistant coagulase-negative Staphylococcus assessed as inhibition of microbial growth at 256 ug/ml by CLSI method
[48] = test system: Staphylococcus aureus; experiment: Antimicrobial activity against methicillin-resistant Staphylococcus aureus by CLSI method

`CC(=O)NC[C@H]1CN(c2ccc(N3CCOCC3)c(F)c2)C(=O)O1` [LINEZOLID] gave an MIC50 [1] of 2 µg/mL (≈ 5.93 µM), an MIC90 [1] of 2 µg/mL (≈ 5.93 µM) and an Activity [2] of 100%. The MIC50 [3] was 1 µg/mL (≈ 2.96 µM), the MIC90 [3] was 2 µg/mL (≈ 5.93 µM) and the Activity [4] was 100%. The MIC50 [5] was 2 µg/mL (≈ 5.93 µM), the MIC90 [5] was 4 µg/mL (≈ 11.9 µM) and the MIC50 [6] was 16 µg/mL (≈ 47.4 µM). For the same compound, the Activity [7] was 0%, the MIC50 [8] was 1 µg/mL (≈ 2.96 µM) and the MIC90 [8] was 2 µg/mL (≈ 5.93 µM). For the same compound, the Activity [9] was 100%, the inhibition at 16 µg/mL [10] was 100% and the inhibition at 4 µg/mL [11] was 100%. For the same compound, the inhibition at 2 µg/mL [12] was 84.6%, the “inhibition (INH)” value [13] was 2% and the inhibition at 1 µg/mL [14] was 40.5%. It also gave an inhibition at 0.5 µg/mL [15] of 4%, an MIC50 [16] of 1 µg/mL (≈ 2.96 µM) and an MIC90 [16] of 2 µg/mL (≈ 5.93 µM). The Activity [17] was 100%, the MIC50 [18] was 1 µg/mL (≈ 2.96 µM) and the MIC90 [18] was 2 µg/mL (≈ 5.93 µM). The MIC50 [19] was 16 µg/mL (≈ 47.4 µM), the Activity [20] was 0% and the “inhibition (INH)” value [21] was 1.3%. It also gave an inhibition at 0.5 µg/mL [22] of 2.4%, an inhibition at 1 µg/mL [23] of 45.2% and an inhibition at 2 µg/mL [24] of 91.1%. The inhibition at 4 µg/mL [25] was 100%, the “inhibition (INH)” value [26] was 0.5% and the inhibition at 0.5 µg/mL [27] was 0.5%. It also gave an inhibition at 1 µg/mL [28] of 51%, an inhibition at 2 µg/mL [29] of 99% and an inhibition at 4 µg/mL [30] of 100%. For the same compound, the “inhibition (INH)” value [31] was 3%, the inhibition at 0.5 µg/mL [32] was 8% and the inhibition at 1 µg/mL [33] was 80.4%. The inhibition at 2 µg/mL [34] was 99%, the inhibition at 4 µg/mL [35] was 100% and the “inhibition (INH)” value [36] was 4.9%. It also gave an inhibition at 0.5 µg/mL [37] of 9.8%, an inhibition at 1 µg/mL [38] of 75.6% and an inhibition at 2 µg/mL [39] of 100%. For the same compound, the inhibition at 1 µg/mL [40] was 81.6%, the inhibition at 2 µg/mL [41] was 98.7% and the inhibition at 4 µg/mL [42] was 100%. It also gave an inhibition at 16 µg/mL [43] of 60%, an inhibition at 32 µg/mL [44] of 60% and an inhibition at 64 µg/mL [45] of 80%. For the same compound, the inhibition at 128 µg/mL [46] was 80%, the inhibition at 256 µg/mL [47] was 100% and the MIC [48] was 16 µg/mL (≈ 47.4 µM).
